“Also recorded” adds a separate entry of the source.
What was measured:
[1] = tested on: δ and εPKC isozymes; assay: PKC isozyme translocation and degradation in cardiac myocytes; format: cell-based, rat
Source text: This peptide-induced translocation was followed by degradation of δ and εPKC isozymes.

[2] = tested on: PKC-mediated germinal vesicle breakdown (GVBD) in Xenopus oocytes; assay: PKC-mediated Xenopus oocyte maturation (germinal vesicle breakdown, GVBD) after peptide microinjection; format: cell-based
Experimental: Exposure to insulin induces maturation in Xenopus oocytes via a PKC-dependent pathway (Smith, et al., 1992). The maturation response may be quantified by monitoring the appearance of a white spot in the animal hemisphere of the oocyte, indicating germinal vesicle breakdown (GVBD) and maturation. To assess the effects of RACK1 WD-40-derived peptides on insulin-induced PKC-mediated maturation, 50 nl of a 20 mM NaCl solution containing the indicated peptides [peptide I (SEQ ID NO:1; .circle-solid.), peptide rVI (SEQ ID NO:7; .box-solid.), or injection solution (.quadrature.)] […] One hour following the peptide injections, the oocytes were exposed to a solution containing insulin (8.25 μg/ml) for 2 minutes (t=0). 10-15 oocytes were used for each sample.
The data, representative of three independent experiments, are expressed as the percent of oocytes with GVBD following insulin exposure and are plotted as a function of time in FIG. 5.

[3] = tested on: PKC; assay: PKC autophosphorylation; format: biochemical, rat; details: 10 μM peptide; no PS, DG, calcium
Experimental: Rat brain PKC (~10 nM) was incubated with mild agitation in a final volume of 250 μl of overlay buffer, as in Example 1 either with anti-βPKC pseudosubstrate antibodies (1:10 dilution, Life Technologies, Gaithersburg, Md.) or with the indicated peptide (10 μM). Where indicated, PS (50 μg/ml), DG (0.8 μg/ml) and CaCl2 (1 mM) were also added. The amount of autophosphorylation was determined after 2 hours for the reaction with the anti-pseudosubstrate antibodies, or after 15 minutes for the other samples. 50 μl of a buffer comprised of 20 mM Tris-HCl (pH 7.5), 20 mM MgCl2, 20 μM ATP and 5 μci/ml [γ-^32 P]ATP. The mixture was incubated for 15 minutes at room temperature and the reaction was stopped by adding 60 μl sample buffer (see Example 9). The samples were then boiled for 10 minutes, loaded onto a 10% SDS-PAGE mini gel and electrophoresed. The gel was fixed with 50% methanol and 10% acetic acid for 1 hour, and the autophosphorylation of PKC was determined by autoradiography.

[4] = biological target: T1, βPKC (Rattus norvegicus, UniProt P68403); assay: Sensitivity of βPKC to Arg-C endopeptidase (nicking); format: biochemical; parameters: All the solutions contained 5 nM rat brain PKC in peptide overlay buffer; from tissue; host or cells: rat brain; details: 2.5 μg/ml PS and 50 μM CaCl2; peptide 10 μM; Arg-C 5 units/ml
Source text: Upon activation of PKC, a pseudosubstrate autoinhibitory sequence at the N-terminus of the molecule dissociates from the catalytic site and becomes sensitive to endopeptidase Arg-C (Orr, et al.). In the absence of PKC activators, exposure of the 80 kDa βPKC to endopeptidase Arg-C has no effect on the enzyme (see FIG. 7, lane 1). In the presence of the PKC activators PS, DG and calcium, however, exposure of βPKC to Arg-C results in a "nicking" of the PKC (i.e. limited proteolysis generating a 78 kDa fragment and several small fragments (see FIG. 7, lane 2)). Continued exposure to Arg-C results in the disappearance of βPKC (Orr, et al.). The present experiment tests whether peptides derived from the WD-40 region of RACK1 alter the sensitivity of βPKC to endopeptidase Arg-C.
The methods used to assay Arg-C sensitivity are a modification of methods described by Orr, et al. Rat brain PKC (~5 nM) was incubated at room temperature in 500 μl of 20 mM Tris-HCl buffer (pH 7.5) alone or with Arg-C (5 units/ml) in the presence or absence of the indicated peptides (final concentration 10 μM or as indicated), PS, DG, and calcium (as indicated). 50 μl aliquots were removed into 20 μl of sample buffer during the reaction as indicated (samples in all the lanes were incubated for 30 minutes, except lanes 5, and 6, which were incubated for 5 and 15 minutes, respectively). The samples were boiled for 10 minutes at 80° C. and loaded onto 8% SDS-PAGE. βPKC was detected by Western blot analysis using anti-βPKC antibodies as described in Examples 6 and 8.
PKC was incubated for the indicated time alone (lane 1) or in the presence of Arg-C (lanes 2-9), with DG (0.8 μg/ml), PS (50 μg/ml) and CaCl2 (1 mM; lane 2), with PS (50 μg/ml) and CaCl2 (1 mM; lane 3), with PS (2.5 μg/ml) and CaCl2 (50 μM; lane 4); with PS (2.5 μg/ml), CaCl2 (50 μM) and with either peptide rVI (SEQ ID NO:7; 10 μM; lanes 5-7), control peptide (SEQ ID NO: 9; lane 8) or with peptide I (SEQ ID) NO:1; lane 9).

[5] = biological target: T1, βPKC; assay: Overlay assay: binding of PKC to immobilized recombinant RACK1; parameters: from tissue; host or cells: PKC from rat brain; RACK1 made in-house in TB1 E. coli (pMAL-c2)
Experimental: (§1) Purified recombinant RACK1 protein (100-250 μg per lane, produced as detailed in Example 2) was subjected to SDS/PAGE and blotted onto nitrocellulose membranes (Ausubel). The nitrocellulose membranes were cut into strips, which were incubated for 0.5 hr in overlay buffer (Example 1) in the presence or absence of a mixture of PKC isozymes (α, β, γ, ε and .zeta., ~10 nM each final concentration) and PKC activators (60 μg/ml phosphatidylserine (PS), 2 μg/ml diacylglycerol (DG), and 1 mM CaCl2). Unbound material was removed by five washes, 5-min each, in overlay wash buffer. Where indicated, PKC activators were present during the incubation of PKC with the nitrocellulose strips. The conditions for each sample and corresponding results are presented in part D below.
PKC bound to RACK1 immobilized on nitrocellulose strips was detected as follows. […]
The concentration dependence of PKC binding to RACK1 was characterized with βPKC, since this isozyme is a major component of the PKC mixture used for the overlay assay. The mean half maximal binding was ~0.375 nM, and maximal binding was ~4 nM (n=3; values reflect binding of βPKC isozyme in the presence of other PKC isozymes and was determined by scanning autoradiograms in the linear range of detection, as described in Mochly-Rosen, et al., (1991).

[6] = tested on: PKC binding to RACK1; assay: Overlay / overlay-extraction assay: inhibition of PKC binding to recombinant RACK1 by peptides; parameters: species or system rat; details: for inhibition of the binding of PKC to RACK1, peptides rI-rVII: overlay assay, concentration not given
Experimental: as §1
The variation in the overlay protocol consisted of incubating the putative binding peptides with a mixture of PKC isozymes for 15 minutes at room temperature before the mixture was used to contact the nitrocellulose strips containing immobilized RACK1.
Nitrocellulose strips containing immobilized RACK1, that had been contacted with a solution containing a mixture of PKC isozymes, were washed and the area corresponding to the 36 kDa (RACK1-containing) band was cut out. The pieces (containing PKC/RACK1 complexes) were incubated with sample buffer for 10 minutes at 80° C. The sample buffer and the nitrocellulose pieces were then placed in wells in the PAGE gel and subjected to SDS-PAGE to elute the bound proteins. The gel was blotted onto nitrocellulose and a Western blot analysis was carried out using the mixture of antibodies (specific for PKC α, β, γ, δ, ε and .zeta. isozymes) described in Example 1 part B. Bound antibodies were detected by ^125 I-protein A.
Peptides derived from or homologous to WD-40 repeats of RACK1 were tested for their ability to inhibit PKC binding to recombinant RACK1. Binding of PKC to RACK1 was carried out using a variation of the overlay procedure described in Example 3 part B. In the experimental samples, peptides were incubated with a solution containing a mixture of rat brain PKC isozymes (~10 nM each) for 15 minutes at room temperature.
Following completion of the modified overlay protocol, the samples were subjected to the overlay-extraction protocol detailed in part B, above.

[7] = tested on: PKC; assay: Histone type IIIs phosphorylation by PKC; format: biochemical; details: peptide rVI 10 μM; PKC ~10 nM
Experimental: Histone type IIIs (Sigma Chemical Company, St. Louis, Mo.) was phosphorylated by PKC (~10 nM) in the absence (lane 1) and presence of peptide rVI (10 μM) (lanes 2 and 3) and in the presence and absence of DG (0.8 μg/ml), PS (50 μg/ml) and CaCl2 (1 mM) (lane 3). The results are expressed as percentage of control that is the amount of Histone phosphorylation by PKC in the presence of DG (0.8 μg/ml), PS (50 μg/ml) and CaCl2 (1 mM). The results are the average±SEM of two independent experiments. PKC was first incubated with the peptide rVI (10 μM) for 15 minutes in overlay buffer as described above. Histone type IIIs (40 μg/ml) was added in Tris-HCl (20 mM), MgCl2 (20 mM), ATP (20 μM) and [γ-^32 P]ATP (5 μci/ml) with or without PS (50 μg/ml), DG (0.8 μg/ml) and CaCl2 (1 mM). Histone phosphorylation was determined by autoradiography as above.

[8] = 50 μM peptide microinjected, insulin 8.25 μg/ml
[9] = peptide introduced into cardiac myocytes

For NC[C@H](O)c1ccc(O)c(O)c1 [norepinephrine, reference compound], the “translocation of δ and εPKC isozymes from the cytosolic to the particulate fraction” value ([1]; NE, 2 μM) was “causes translocation of δ and εPKC isozymes from the cytosolic to the particulate fraction”.

With “control peptide: control peptide (SEQ ID NO:9) used as negative control (LKGKIL) [reference compound]” the “delay to onset of maturation after exposure to insulin” value [2, 8] was 4 to 5 h, the “time at which plateau of GVBD is reached” value [2, 8] was 10 to 12 h and the “plateau of % GVBD following insulin exposure” value ([2]; 50 nl of 50 μM peptide microinjected, insulin 8.25 μg/ml) was 85-90 % GVBD. For the same molecule, the “induction of PKC autophosphorylation in the absence of PKC activators” value [3] was “Neither peptide I nor control peptide induced PKC autophosphorylation” and the “nicking of βPKC by Arg-C (78 kDa fragment) at low concentrations of activators” value [4] was “nicking of βPKC did not occur”.

maltose binding protein was tested, and the “binding of PKC to control proteins” value [5] was “did not bind PKC”.

“peptide rI: synthetic peptide based on the corresponding region in WD-40 repeat I of RACK1 (VTQIATT)” was tested, and the “inhibition of the binding of PKC to RACK1, peptides rI-rVII” value (“inhibition of the binding of PKC” below) [6] was “effective inhibitors”.

With “peptide rII: synthetic peptide based on the corresponding region in WD-40 repeat II of RACK1 (FVSDVVI)” the “inhibition of the binding of PKC” value [6] was “effective inhibitors”.

With “peptide rIII: seven amino acid peptide identical to a segment of RACK1 WD-40 repeat III (DVLSVAF)” the “relative effectiveness in inhibiting PKC binding to RACK1” value ([6]; 10 μM peptide) was “somewhat more effective than peptide rVI”, the “inhibition of PKC binding to RACK1 (FIG. 3)” value ([6]; 10 μM peptide preincubated with PKC) was “inhibit the binding of PKC to RACK1” and the “inhibition of the binding of PKC” value [6] was “inhibited the binding of PKC to RACK1”. For the same molecule, the “effect on insulin-induced oocyte maturation” value ([2]; peptide microinjected (rVI 50 μM; rIII 50 and 500 μM)) was “enhances insulin-induced oocyte maturation; also recorded: potentiated the effects of insulin on oocyte maturation”, the “fraction of oocytes exposed to insulin that reach maturation” value ([2]; peptide microinjected, insulin) was roughly 100% and the “induction of PKC-mediated histone phosphorylation in the absence of PS, DG and calcium” value [7] was “similarly induced histone phosphorylation”. The “effect on NE-induced translocation of PKC isozymes” value ([1]; norepinephrine 2 μM, peptide introduced into cardiac myocytes) was “further enhanced”, the “degradation of δ and εPKC isozymes” value [1, 9] was “followed by degradation of these activated isozymes” and the “translocation / distribution of δ and εPKC isozymes in the absence of hormone stimulation” value [1, 9] was “caused an immediate translocation of δ and εPKC isozymes”. For the same molecule, the “nicking of βPKC by Arg-C (78 kDa fragment) at low concentrations of activators” value [4] was “resulted in the appearance of the 78 kDa nicked PKC fragment”.

With “peptide rV: synthetic peptide based on the corresponding region in WD-40 repeat V of RACK1 (GYLNTVT)” the “inhibition of the binding of PKC” value [6] was “lesser inhibitory effect”.

In the case of “peptide rVII: synthetic peptide based on the corresponding region in WD-40 repeat VII of RACK1 (PQCTSLA)”, the “inhibition of the binding of PKC” value [6] is reported as “no inhibition”.

For “rIV: synthetic peptide based on the corresponding region in WD-40 repeat IV of RACK1 (VSCVRFS)”, the “inhibition of the binding of PKC” value [6] was “lesser inhibitory effect”.
